The record followed here is patent US20250388565A1, “ESTROGEN RECEPTOR ALPHA DEGRADERS AND METHODS OF USE THEREOF” (Relay Therapeutics, Inc., priority 2022, published 2025).

Structures are written as SMILES. Where only a bound is given, the exact number is not on record here.

The target of this assay is T1, ERα protein (HiBiT-tagged) in ESR1_HiBiT KI MCF7 cells (Homo sapiens, UniProt P03372).
T1 sequence (P03372 1-595): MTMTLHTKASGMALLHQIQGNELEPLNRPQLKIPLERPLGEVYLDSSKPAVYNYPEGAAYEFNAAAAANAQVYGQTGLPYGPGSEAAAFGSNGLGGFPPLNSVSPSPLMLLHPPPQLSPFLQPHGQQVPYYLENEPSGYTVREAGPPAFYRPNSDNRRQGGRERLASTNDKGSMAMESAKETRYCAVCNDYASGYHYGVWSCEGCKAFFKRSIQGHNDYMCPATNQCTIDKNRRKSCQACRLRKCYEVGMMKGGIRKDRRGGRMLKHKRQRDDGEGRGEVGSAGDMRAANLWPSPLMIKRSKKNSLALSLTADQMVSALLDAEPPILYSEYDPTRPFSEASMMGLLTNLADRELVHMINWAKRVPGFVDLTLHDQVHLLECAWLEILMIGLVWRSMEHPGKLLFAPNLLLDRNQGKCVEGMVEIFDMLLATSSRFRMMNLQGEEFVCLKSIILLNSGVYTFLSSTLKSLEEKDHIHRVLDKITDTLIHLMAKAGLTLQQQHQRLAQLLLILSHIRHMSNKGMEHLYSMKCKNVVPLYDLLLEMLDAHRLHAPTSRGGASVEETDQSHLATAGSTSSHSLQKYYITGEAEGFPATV
The assay is described as follows: Nano Glo HiBiT Lytic Degradation Assay. Format: cell-based. To be noted: 6 hours with compound, 14-point dose response 1:3, bell-shape curve fit, half-maximal effect of first Hill model, read-out: MCF7 ESR1 HiBiT - (DC50). Summed up:
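Lytic Nano-Glo HiBiT luminescence quantified ERα remaining after a 6 h, 37° C compound exposure of MCF7 cells carrying endogenous HiBiT-tagged ESR1. Dosing used 14 threefold dilutions from a 10 mM DMSO stock (0.1% DMSO final), run in duplicate. Signals were corrected for cell-free background and expressed relative to DMSO, and DC50 came from a bell-shaped curve fit (first Hill model half-maximum).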
Background: HiBiT is a short tag that completes a luciferase, so light tracks the accessible tagged protein.
Take `CC(C1CCN(c2ccc([C@@H]3c4ccc(O)cc4CC[C@@H]3c3ccccc3)cc2)CC1)N1CCN(c2ccc3c(c2)CN([C@@H]2CCC(=O)NC2=O)C3=O)CC1` (single isomer, unassigned) [II-67]: the half-maximal degradation concentration (DC50) came to 47 nM.
As for `CC(C)c1ccccc1[C@H]1OCc2cc(O)ccc2[C@H]1c1ccc(N2CCC(CN3CCN(c4ccc5c(c4)CN([C@H]4CCC(=O)NC4=O)C5=O)CC3)CC2)cc1` [Compound I-351, (S)-3-(5-(4-((1-(4-((3S,4R)-7-hydroxy-3-(2-isopropylphenyl)isochroman-4-yl)phenyl)piperidin-4-yl)methyl)piperazin-1-yl)-1-oxoisoindolin-2-yl)piperidine-2,6-dione], the DC50 was 0.2 nM.
With `CC1(C)CC([C@@H]2CCc3cc(O)ccc3[C@@H]2c2ccc(N3CCC(CN4CCN(c5ccc6c(c5)CN([C@H]5CCC(=O)NC5=O)C6=O)CC4)CC3)cc2)CC(C)(C)C1` [Compound I-117, (35)-3-[5-[4-[[1-[4-[(1R,2R)-6-hydroxy-2-(3,3,5,5-tetramethylcyclohexyl)tetralin-1-yl]phenyl]-4-piperidyl]methyl]piperazin-1-yl]-1-oxo-isoindolin-2-yl]piperidine-2,6-dione], the 50% degradation concentration (DC50) is at least 10000 nM.
Take `CC[C@@H]1CCc2cc(O)ccc2[C@@H]1c1ccc(N2CCC(CN3CCN(c4ccc5c(c4)CN([C@H]4CCC(=O)NC4=O)C5=O)CC3)CC2)cc1` (single isomer, unassigned) [Compound I-112]: the DC50 came out at 0.14 nM.
With `O=C1CC[C@H](N2Cc3cc(N4CCN(CC5CCN(c6ccc([C@H]7c8ccc(O)cc8CO[C@H]7CC7CC7)cc6)CC5)CC4)ccc3C2=O)C(=O)N1` (single isomer, unassigned) [Compound I-231], the DC50 is at least 10000 nM.
Take `Cn1ccc([C@@H]2CCc3cc(O)ccc3[C@@H]2c2ccc(N3CCC(CN4CCN(c5ccc6c(c5)CN([C@H]5CCC(=O)NC5=O)C6=O)CC4)CC3)cc2)n1` (single isomer, unassigned) [Compound I-29]: the half-maximal degradation concentration (DC50) was determined as 0.14 nM.
For `Cc1cc([C@@H]2OCc3cc(O)ccc3[C@@H]2c2ccc(N3CCC(CN4CCN(c5ccc6c(c5)CN([C@H]5CCC(=O)NC5=O)C6=O)CC4)CC3)cc2)ccc1F` [Compound I-376, (S)-3-(5-(4-((1-(4-((3R,4S)-3-(4-fluoro-3-methylphenyl)-7-hydroxyisochroman-4-yl)phenyl)piperidin-4-yl)methyl)piperazin-1-yl)-1-oxoisoindolin-2-yl)piperidine-2,6-dione], the DC50 is at least 10000 nM.
Consider `O=C1CCC(c2cccc(N3CCC4(CCN(CC5CCN(c6ccc([C@@H]7c8ccc(O)cc8CC[C@@H]7c7ccccc7)cc6)CC5)CC4)CC3)c2)C(=O)N1` (stereo partly drawn) [Compound I-183, 3-(3-(9-((1-(4-((1R,2S)-6-hydroxy-2-phenyl-1,2,3,4-tetrahydronaphthalen-1-yl)phenyl)piperidin-4-yl)methyl)-3,9-diazaspiro[5.5]undecan-3-yl)phenyl)piperidine-2,6-dione], for which the 50% degradation concentration (DC50) was at least 10000 nM.
As for `O=C1CC[C@H](N2Cc3cc(N4CCN(CC5CCN(c6ccc([C@@H]7c8ccc(O)cc8CC[C@@H]7C78CC9CC(CC(C9)C7)C8)cc6)CC5)CC4)ccc3C2=O)C(=O)N1` [Compound I-161, (S)-3-(5-(4-((1-(4-((1R,2S)-2-((3R,5R,7R)-adamantan-1-yl)-6-hydroxy-1,2,3,4-tetrahydronaphthalen-1-yl)phenyl)piperidin-4-yl)methyl)piperazin-1-yl)-1-oxoisoindolin-2-yl)piperidine-2,6-dione], the 50% degradation concentration (DC50) amounted to 8 nM.
For the molecule `O=C1CC[C@H](N2Cc3cc(N4CCN(CC5CCN(c6ccc([C@@H]7c8ccc(O)cc8C(F)(F)C[C@@H]7C7CCCC7)cc6)CC5)CC4)ccc3C2=O)C(=O)N1` [Compound I-198, (S)-3-(5-(4-((1-(4-((1R,2R)-2-cyclopentyl-4,4-difluoro-6-hydroxy-1,2,3,4-tetrahydronaphthalen-1-yl)phenyl)piperidin-4-yl)methyl)piperazin-1-yl)-1-oxoisoindolin-2-yl)piperidine-2,6-dione], the DC50 was 0.93 nM.
Regarding `Cn1nc([C@H]2CCC(=O)NC2=O)c2ccc(N3CCN(CC4CCN(c5ccc([C@@H]6c7ccc(O)cc7CC[C@@H]6c6ccccc6)cc5)CC4)CC3)cc21` (single isomer, unassigned) [Compound I-295], the DC50 came to 0.84 nM.
`C[C@@H]1O[C@H](C2CCCCC2)[C@@H](c2ccc(N3CCC(CN4CCN(c5ccc6c(c5)CN([C@H]5CCC(=O)NC5=O)C6=O)CC4)CC3)cc2)c2ccc(O)cc21` (single isomer, unassigned) [Compound I-252]: the half-maximal degradation concentration (DC50) came out at 22 nM.
Consider `O=C1CC[C@@H](c2ccc(N3CCC4(CCN(CC5CCN(c6ccc([C@@H]7c8ccc(O)cc8C(F)(F)C[C@@H]7c7ccccc7)cc6)CC5)C4)CC3)cc2)C(=O)N1` (single isomer, unassigned) [Compound I-286], for which the 50% degradation concentration (DC50) worked out at 91.1 nM.
In the case of `O=C1CC[C@H](N2Cc3cc(N4CCN(CC5CCN(c6ccc([C@H]7c8ccc(O)cc8C(F)(F)C[C@H]7c7ccccc7)c(F)c6)CC5)CC4)ccc3C2=O)C(=O)N1` [Compound I-307, (S)-3-(5-(4-((1-(4-((1R,2R)-4,4-difluoro-6-hydroxy-2-phenyl-1,2,3,4-tetrahydronaphthalen-1-yl)-3-fluorophenyl)piperidin-4-yl)methyl)piperazin-1-yl)-1-oxoisoindolin-2-yl)piperidine-2,6-dione], the DC50 turned out to be 19 nM.
With `C[C@H]1O[C@H](c2ccccc2)[C@H](c2ccc(N3CCC(CN4CCN(c5ccc6c(c5)CN([C@H]5CCC(=O)NC5=O)C6=O)CC4)CC3)cc2)c2ccc(O)cc21` (single isomer, unassigned) [Compound I-367], the half-maximal degradation concentration (DC50) is 0.24 nM.
Regarding `O=C1CC[C@H](N2Cc3cc(N4CCN(CC5CCN(c6ccc([C@@H]7c8ccc(O)cc8C(F)(F)C[C@@H]7c7ccc(F)c(F)c7)cc6)CC5)CC4)ccc3C2=O)C(=O)N1` [Compound I-314, (S)-3-(5-(4-((1-(4-((1R,2S)-2-(3,4-difluorophenyl)-4,4-difluoro-6-hydroxy-1,2,3,4-tetrahydronaphthalen-1-yl)phenyl)piperidin-4-yl)methyl)piperazin-1-yl)-1-oxoisoindolin-2-yl)piperidine-2,6-dione], the DC50 came out at 0.33 nM.
For `O=C1CCC(c2cccc(N3CC[C@H]4[C@@H]3CCN4CC3CCN(c4ccc([C@@H]5c6ccc(O)cc6CC[C@@H]5c5ccccc5)cc4)CC3)c2)C(=O)N1` (stereo partly drawn) [Compound I-179, 3-(3-((3aS,6aS)-4-((1-(4-((1R,2S)-6-hydroxy-2-phenyl-1,2,3,4-tetrahydronaphthalen-1-yl)phenyl)piperidin-4-yl)methyl)hexahydropyrrolo[3,2-b]pyrrol-1 (2H)-yl)phenyl)piperidine-2,6-dione], the half-maximal degradation concentration (DC50) was found to be 34 nM.
On to `O=C1CC[C@H](N2Cc3cc(N4CCC5(CCN(CC6CCN(c7ccc([C@H]8c9ccc(O)cc9CC[C@H]8c8ccccc8)cc7)CC6)CC5)CC4)ccc3C2=O)C(=O)N1` (single isomer, unassigned) [II-18], for which the DC50 was at least 10000 nM.
On to `O=C1CCC(N2Cc3cc(N4CCN(CC5CCC(c6ccc([C@@H]7c8ccc(O)cc8CC[C@@H]7c7ccccc7)cc6)CC5)CC4)ccc3C2=O)C(=O)N1` (stereo partly shown) [II-53], for which the DC50 is 0.22 nM.
Regarding `NC(=O)C(CCC(=O)O)N1Cc2cc(N3CCN(CC4CCN(c5ccc([C@@H]6c7ccc(O)cc7CO[C@@H]6c6ccccc6)cc5)CC4)CC3)ccc2C1=O` (stereo partly shown) [Compound I-399], the DC50 was at least 10000 nM.
With `Cc1ccc([C@H]2OCc3cc(O)ccc3[C@H]2c2ccc(N3CCC(CN4CCN(c5ccc6c(c5)CN([C@H]5CCC(=O)NC5=O)C6=O)CC4)CC3)cc2)cc1F` (single isomer, unassigned) [Compound I-355] the figure was 0.27 nM; with `O=C1CCC(N2Cc3cc(N4CCN(CC5CCN(c6ccc([C@@H]7c8ccc(O)cc8CC[C@@H]7C7CCC(F)(F)CC7)cc6)CC5)CC4)ccc3C2=O)C(=O)N1` (single isomer, unassigned) [Compound I-54], 742 nM; with `C[C@@H]1C[C@H](c2ccccc2)[C@H](c2ccc(N3CCC(CN4CCN(c5ccc6c(c5)CN([C@H]5CCC(=O)NC5=O)C6=O)CC4)CC3)cc2)c2ccc(O)cc21` (single isomer, unassigned) [Compound I-419], 2 nM.
Turning to `O=C1CC[C@H](N2Cc3cc(N4CCN(C[C@@H]5CCN(c6ccc([C@H]7c8ccc(O)cc8CC[C@H]7c7ccccc7)cc6)C5)CC4)ccc3C2=O)C(=O)N1` (single isomer, unassigned) [II-33], the DC50 turned out to be 2 nM.
With `O=C1CCC(n2cc3cc(N4CCN(CC5CCN(c6ccc([C@@H]7c8ccc(O)cc8CO[C@@H]7c7ccccc7)cc6)CC5)CC4)ccc3n2)C(=O)N1` (stereo partly drawn) [Compound I-397, 3-(5-(4-((1-(4-((3S,4R)-7-hydroxy-3-phenylisochroman-4-yl)phenyl)piperidin-4-yl)methyl)piperazin-1-yl)-2H-indazol-2-yl)piperidine-2,6-dione] the figure was 0.61 nM.

Usually DC50 stands for the concentration giving 50% degradation.
